In US7446199B2, “Compositions useful as inhibitors of protein kinases” (Vertex Pharmaceuticals Incorporated, priority 2003, dated 2008):

What follows are molecules tested against T1, FLT-3 (Homo sapiens, UniProt P36888) (assay: Inhibition of FLT-3, radiometric filter-binding assay). Settings: 90 μM ATP, 0.5 mg/mL pE4Y, room temperature.
T1 construct: 0.02% BSA and 3 nM FLT-3
T1 sequence (P36888 27-993): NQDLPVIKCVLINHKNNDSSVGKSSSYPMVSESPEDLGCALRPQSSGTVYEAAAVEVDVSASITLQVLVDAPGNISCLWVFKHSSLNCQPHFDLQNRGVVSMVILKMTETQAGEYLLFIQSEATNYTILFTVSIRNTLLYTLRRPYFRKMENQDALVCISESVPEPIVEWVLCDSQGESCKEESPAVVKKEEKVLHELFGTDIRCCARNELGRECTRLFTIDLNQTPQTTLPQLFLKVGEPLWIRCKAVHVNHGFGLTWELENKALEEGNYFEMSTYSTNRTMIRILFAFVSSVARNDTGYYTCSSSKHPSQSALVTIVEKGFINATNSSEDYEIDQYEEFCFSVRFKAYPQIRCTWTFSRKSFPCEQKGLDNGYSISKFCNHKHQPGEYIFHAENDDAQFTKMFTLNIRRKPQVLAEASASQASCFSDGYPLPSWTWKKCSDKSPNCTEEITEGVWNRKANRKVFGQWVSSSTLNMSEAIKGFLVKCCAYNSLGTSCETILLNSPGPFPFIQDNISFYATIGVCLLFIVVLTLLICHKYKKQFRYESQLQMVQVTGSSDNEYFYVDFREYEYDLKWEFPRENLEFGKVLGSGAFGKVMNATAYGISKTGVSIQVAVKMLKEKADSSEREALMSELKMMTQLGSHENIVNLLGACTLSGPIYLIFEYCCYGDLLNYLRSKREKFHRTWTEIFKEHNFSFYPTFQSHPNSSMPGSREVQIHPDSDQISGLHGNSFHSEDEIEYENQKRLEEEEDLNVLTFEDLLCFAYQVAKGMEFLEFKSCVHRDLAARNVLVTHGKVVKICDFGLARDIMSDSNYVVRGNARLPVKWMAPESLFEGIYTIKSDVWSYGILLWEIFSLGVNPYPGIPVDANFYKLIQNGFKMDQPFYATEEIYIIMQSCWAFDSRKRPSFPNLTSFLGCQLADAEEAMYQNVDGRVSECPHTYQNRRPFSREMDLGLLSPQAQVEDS
Format: biochemical
Protocol: Compounds were screened for their ability to inhibit FLT-3 activity using a radiometric filter-binding assay. This assay monitors the ^33P incorporation into a substrate poly(Glu, Tyr) 4:1 (pE4Y). Reactions were carried out in a solution containing 100 mM HEPES (pH 7.5), 10 mM MgCl2, 25 mM NaCl, 1 mM DTT, 0.01% BSA and 2.5% DMSO. Final substrate concentrations in the assay were 90 μM ATP and 0.5 mg/mL pE4Y (both from Sigma Chemicals, St Louis, Mo.). The final concentration of compounds is generally between 0.01 and 5 μM. Typically, a 12-point titration was conducted by preparing serial dilutions from 10 mM DMSO stock of test compound. Reactions were carried out at room temperature.
Two assay solutions were prepared. Solution 1 contains 100 mM HEPES (pH 7.5), 10 mM MgCl2, 25 mM NaCl, 1 mg/ml pE4Y and 180 μM ATP(containing 0.3 μCi of [γ-^33P]ATP for each reaction). Solution 2 contains 100 mM HEPES (pH 7.5), 10 mM MgCl2, 25 mM NaCl, 2 mM DTT, 0.02% BSA and 3 nM FLT-3. The assay was run on a 96 well plate by mixing 50 μL each of Solution 1 and […] of the test compounds. The reaction was initiated with Solution2. After incubation for 20 minutes at room temperature, the reaction was stopped with 50 μL of 20% TCA containing 0.4 mM of ATP. All of the reaction volume was then transferred to a filter plate and washed with 5% TCA by a Harvester9600 from TOMTEC (Hamden, Conn.). The amount of ^33P incorporation into pE4y was analyzed by a Packard TopCount Microplate Scintillation Counter (Meriden, Conn.). The data was fitted using Prism software to get an IC50 or Ki.

How did the Ki turn out when `CC(=O)Nc1ccc(-c2cnc3[nH]cc(-c4oncc4-c4cccc(F)c4F)c3c2)cc1` [Compound 95, N-(4-{3-[4-(2,3-Difluoro-phenyl)-isoxazol-5-yl]-1H-pyrrolo[2,3-b]pyridin-5-yl}-phenyl)-acetamide] was run?
Its Ki is < 0.2 µM.

How did the Ki turn out when `CN(C)Cc1ccc(-c2cnc3[nH]cc(-c4oncc4-c4cccc(F)c4F)c3c2)nc1` [Compound 84, (6-{3-[4-(2,3-Difluoro-phenyl)-isoxazol-5-yl]-1H-pyrrolo[2,3-b]pyridin-5-yl}-pyridin-3-ylmethyl)-dimethyl-amine] was run?
Its Ki is < 0.2 µM.

For `CN(C)Cc1ccc(-c2cnc3[nH]cc(-c4oncc4-c4cccc(F)c4F)c3c2)cc1` [Compound 91, (4-{3-[4-(2,3-Difluoro-phenyl)-isoxazol-5-yl]-1H-pyrrolo[2,3-b]pyridin-5-yl}-benzyl)-dimethyl-amine], which Ki is on record?
Its Ki is < 0.2 µM.

Which Ki does the source give for `NC1CC=C(c2cnc3[nH]cc(-c4oncc4-c4cccc(F)c4F)c3c2)CC1` (stereo not drawn) [Compound 137, 4-{3-[4-(2,3-Difluoro-phenyl)-isoxazol-5-yl]-1H-pyrrolo [2,3-b]pyridin-5-yl}-cyclohex-3-enylamine] here?
Its Ki is < 0.2 µM.

`Fc1cccc(-c2cnoc2-c2c[nH]c3ncc(-c4cnc5[nH]ccc5c4)cc23)c1F` [Compound 77, 3-[4-(2,3-Difluoro-phenyl)-isoxazol-5-yl]-1H,1′H-[5,5′]bi[pyrrolo[2,3-b]pyridinyl]] was tested. Which Ki did it give?
The Ki was < 0.2 µM.

With `CN1CCN(Cc2ccc(-c3cnc4[nH]cc(-c5oncc5-c5cccc(F)c5F)c4c3)cc2)CC1` [Compound 94, 3-[4-(2,3-Difluoro-phenyl)-isoxazol-5-yl]-5-[4-(4-methyl-piperazin-1-ylmethyl)-phenyl]-1H-pyrrolo[2,3-b]pyridine] as the molecule, how does the Ki read?
The Ki was < 0.2 µM.

Which Ki does the source give for `Fc1cccc(-n2cnnc2-c2c[nH]c3ncc(-c4ccc(CN5CCOCC5)cc4)cc23)c1F` [Compound 109, 3-[4-(2,3-Difluoro-phenyl)-4H-[1,2,4]triazol-3-yl]-5-(4-morpholin-4-ylmethyl-phenyl)-1H-pyrrolo[2,3-b]pyridine] here?
Its Ki is 0.2 to 1 µM.

Which Ki does the source give for `CN(C)c1cccc(-c2cnc3[nH]cc(-c4oncc4-c4cccc(F)c4F)c3c2)c1` [Compound 61, (3-{3-[4-(2,3-Difluoro-phenyl)-isoxazol-5-yl]-1H-pyrrolo[2,3-b]pyridin-5-yl}-phenyl)-dimethyl-amine] here?
The Ki was 0.2 to 1 µM.

With `COc1cncc(-c2cnc3[nH]cc(-c4oncc4-c4cccc(F)c4F)c3c2)c1` [Compound 96, 3-[4-(2,3-Difluoro-phenyl)-isoxazol-5-yl]-5-(5-methoxy-pyridin-3-yl)-1H-pyrrolo[2,3-b]pyridine] as the molecule, how does the Ki read?
Its Ki is 0.2 to 1 µM.

Which Ki does the source give for `CNc1ccc2c(-c3oncc3-c3cccc(F)c3F)c[nH]c2n1` [Compound 102, {3-[4-(2,3-Difluoro-phenyl)-isoxazol-5-yl]-1H-pyrrolo[2,3-b]pyridin-6-yl}-methyl-amine] here?
Its Ki is 1 to 12.5 µM.

How did the Ki turn out when `Fc1cccc(Cc2cnoc2-c2c[nH]c3ncccc23)c1F` [Compound 36, 3-[4-(2,3-Difluoro-benzyl)-isoxazol-5-yl]-1H-pyrrolo[2,3-b]pyridine] was run?
The Ki was 1 to 12.5 µM.

With `COc1ccnc(-c2cnc3[nH]cc(-c4oncc4-c4cccc(F)c4F)c3c2)c1` [Compound 78, 3-[4-(2,3-Difluoro-phenyl)-isoxazol-5-yl]-5-(4-methoxy-pyridin-2-yl)-1H-pyrrolo[2,3-b]pyridine] as the molecule, how does the Ki read?
Its Ki is 0.2 to 1 µM.

With `Fc1cccc(-c2cnoc2-c2c[nH]c3ncccc23)c1F` [Compound 1, 3-[4-(2,3-Difluoro-phenyl)-isoxazol-5-yl]-1H-pyrrolo[2,3-b]pyridine] as the molecule, how does the Ki read?
The Ki was 0.2 to 1 µM.

`CN1CCN(C(=O)[C@H]2C[C@H]2c2cnc3[nH]cc(-c4oncc4-c4cccc(F)c4F)c3c2)CC1` (relative stereo) [Compound 143, cis-(2-{3-[4-(2,3-Difluoro-phenyl)-isoxazol-5-yl]-1H-pyrrolo[2,3-b]pyridin-5-yl}-cyclopropyl)-(4-methyl-piperazin-1-yl)-methanone] was tested. Which Ki did it give?
The Ki was 0.2 to 1 µM.

Which Ki does the source give for `CCN1CCC(c2cnc3[nH]cc(-c4oncc4-c4cccc(F)c4F)c3c2)CC1` [Compound 72, 3-[4-(2,3-Difluoro-phenyl)-isoxazol-5-yl]-5-(1-ethyl-piperidin-4-yl)-1H-pyrrolo[2,3-b]pyridine] here?
Its Ki is 1 to 12.5 µM.

`Oc1cnc2[nH]cc(-c3oncc3-c3cccc(Cl)c3Cl)c2c1` [Compound 48, 3-[4-(2,3-Dichloro-phenyl)-isoxazol-5-yl]-1H-pyrrolo[2,3-b]pyridin-5-ol] was tested. Which Ki did it give?
Its Ki is 0.2 to 1 µM.

Which Ki does the source give for `Oc1cnc2[nH]cc(-c3oncc3-c3cccc(F)c3F)c2c1` [Compound 43, 3-[4-(2,3-Difluoro-phenyl)-isoxazol-5-yl]-1H-pyrrolo[2,3-b]pyridin-5-ol] here?
The Ki was 0.2 to 1 µM.

Which Ki does the source give for `CN1CCCN(c2ccc(-c3cnc4[nH]cc(-c5nncn5-c5cccc(F)c5F)c4c3)cn2)CC1` [Compound 117, 3-[4-(2,3-Difluoro-phenyl)-4H-[1,2,4]triazol-3-yl]-5-[6-(4-methyl-[1,4]diazepan-1-yl)-pyridin-3-yl]-1H-pyrrolo [2,3-b]-pyridine] here?
The Ki was 0.2 to 1 µM.

For `CN1CCC(c2cnc3[nH]cc(-c4oncc4-c4cccc(F)c4F)c3c2)CC1` [Compound 60, 3-[4-(2,3-Difluoro-phenyl)-isoxazol-5-yl]-5-(1-methyl-piperidin-4-yl)-1H-pyrrolo[2,3-b]pyridine], which Ki is on record?
The Ki was 1 to 12.5 µM.

`Fc1cccc(-c2cnoc2-c2c[nH]c3ncc(-c4ccccc4)cc23)c1F` [Compound 58, 3-[4-(2,3-Difluoro-phenyl)-isoxazol-5-yl]-5-phenyl-1H-pyrrolo[2,3-b]pyridine] was tested. Which Ki did it give?
The Ki was 0.2 to 1 µM.

Which Ki does the source give for `CN1CCN(c2ccc(-c3cnc4[nH]cc(-c5nncn5-c5cccc(F)c5F)c4c3)cc2)CC1` [Compound 110, 3-[4-(2,3-Difluoro-phenyl)-4H-[1,2,4]triazol-3-yl]-5-[4-(4-methyl-piperazin-1-yl)-phenyl]-1H-pyrrolo[2,3-b]pyridine] here?
The Ki was 0.2 to 1 µM.

With `Nc1cccc(-c2cnc3[nH]cc(-c4oncc4-c4cccc(F)c4F)c3c2)c1` [Compound 86, 3-{3-[4-(2,3-Difluoro-phenyl)-isoxazol-5-yl]-1H-pyrrolo [2,3-b]pyridin-5-yl}-phenylamine] as the molecule, how does the Ki read?
Its Ki is < 0.2 µM.

`OC1CCN(c2ccc(-c3cnc4[nH]cc(-c5nncn5-c5cccc(F)c5F)c4c3)cn2)CC1` [Compound 116, 5′-{3-[4-(2,3-Difluoro-phenyl)-4H-[1,2,4]triazol-3-yl]-1H-pyrrolo[2,3-b]pyridin-5-yl}-3,4,5,6-tetrahydro-2H-[1,2′]bi-pyridinyl-4-ol] was tested. Which Ki did it give?
Its Ki is 0.2 to 1 µM.

`CN(C)C(=O)c1ccc(-c2cnc3[nH]cc(-c4oncc4-c4cccc(F)c4F)c3c2)nc1` [Compound 79, 6-{3-[4-(2,3-Difluoro-phenyl)-isoxazol-5-yl]-1H-pyrrolo [2,3-b]pyridin-5-yl}-N,N-dimethyl-nicotinamide] was tested. Which Ki did it give?
Its Ki is < 0.2 µM.

How did the Ki turn out when `Fc1cccnc1-c1cnc2[nH]cc(-c3oncc3-c3cccc(F)c3F)c2c1` [Compound 74, 3-[4-(2,3-Difluoro-phenyl)-isoxazol-5-yl]-5-(3-fluoro-pyridin-2-yl)-1H-pyrrolo[2,3-b]pyridine] was run?
The Ki was 1 to 12.5 µM.

For `CS(=O)(=O)NC1CC=C(c2cnc3[nH]cc(-c4oncc4-c4cccc(F)c4F)c3c2)CC1` (stereo not drawn) [Compound 140, N-(4-{3-[4-(2,3-Difluoro-phenyl)-isoxazol-5-yl]-1H-pyrrolo[2,3-b]pyridin-5-yl}-cyclohex-3-enyl)-methanesulfonamide], which Ki is on record?
Its Ki is < 0.2 µM.

With `CN(C)Cc1ccnc(-c2cnc3[nH]cc(-c4oncc4-c4cccc(F)c4F)c3c2)c1` [Compound 82, (2-{3-[4-(2,3-Difluoro-phenyl)-isoxazol-5-yl]-1H-pyrrolo[2,3-b]pyridin-5-yl}-pyridin-4-ylmethyl)-dimethyl-amine] as the molecule, how does the Ki read?
Its Ki is < 0.2 µM.
